From ChEMBL document CHEMBL4622980, “Peptide Inhibitors of Bacterial Protein Synthesis with Broad Spectrum and SbmA-Independent Bactericidal Activity against Clinical Pathogens” (J Med Chem, 2020) come the findings set out here.

The experiment has as its system Escherichia coli. The experiment in a line: Antibacterial activity against Escherichia coli BW25113 assessed as prevention visible bacterial growth incubated for 18 hrs. The experiment is classed as functional. The note with it: BW25113, 18 h.

A word on the MIC99: it is the lowest concentration that inhibits either 99% of growth or 99% of the strains tested, depending on the study.

≈ marks a conversion by molar mass, not a printed value. Non-standard residues stand in square brackets, D forms with d. Residues, ends and D or L forms follow the SMILES beside them. ξ: configuration not given here. ξP = O=C(O)C1CCCN1 Bounds are passed on as bounds.

Turning to H-RRIRPRPPRLPRPRPF-OH, the MIC99 was determined as 8 µM.
The result for H-RRIRPRPPRLPEPRPR-OH reads more than 64 µM; that for H-RRIRPRPPRLPRFRPR-OH, 8 µM; that for H-RRIRPRPPRLPRPRFR-OH, 8 µM.
The result for H-RRIRPRPPRLPRPRPE-OH reads 64 µM; that for H-RRIRPRSPRLPRPRPR-OH, 16 µM.
As to H-RRIRARPPRLPRPRPR-OH, the MIC99 was 8 µM.
The result for H-RRIRPAPPRLPRPRPR-OH reads 16 µM; that for H-GRIRPRPPRLPRPRPR-OH, 8 µM.
The value for H-RRIRPRPPRLPRPRPW-OH was 8 µM; that for H-RRIRPRFPRLPRPRPR-OH was 8 µM; that for H-RRIRPRPPRLPRWRPR-OH was 2 µM.
The result for H-RRIRPRPPRLPRPSPR-OH reads 32 µM; that for H-RRIRPRPPRLPRPFPR-OH, 8 µM; that for H-RRIRPRPPRLPRPRGR-OH, 16 µM.
On to H-RRIRPRPPSLPRPRPR-OH, for which the MIC99 was 32 µM.
With H-RRIRPRPPRLSRPRPR-OH, the MIC99 amounted to 32 µM.
The result for H-ARIRPRPPRLPRPRPR-OH reads 4 µM; that for H-RRIRPRPPRLPRPRPA-OH, 16 µM; that for H-RRIRPRPPRGPRPRPR-OH, 64 µM.
The value for H-RRIRPRGPRLPRPRPR-OH was 16 µM; that for H-RRIEPRPPRLPRPRPR-OH was more than 64 µM; that for H-RRIRPRPPRLPRERPR-OH was 64 µM.
The result for H-RRIRPRPPGLPRPRPR-OH reads 64 µM; that for H-ERIRPRPPRLPRPRPR-OH, 64 µM; that for H-RRIRPRPRRLPRPRPR-OH, 16 µM.
Take H-RGIRPRPPRLPRPRPR-OH: the MIC99 is 16 µM.
For the compound H-RRIRPRPPRLPRPRPG-OH, the MIC99 came to 16 µM.
The value for H-RRIRSRPPRLPRPRPR-OH was 16 µM.
The value for H-RRIRPRPPFLPRPRPR-OH was 16 µM.
The result for H-RRIRPRPPRLPRPRPP-OH reads 32 µM; that for H-RRIRPRPPRLPRPRER-OH, 32 µM.
With H-RRIWPRPPRLPRPRPR-OH, the MIC99 turned out to be 8 µM.
The value for H-RFIRPRPPRLPRPRPR-OH was 16 µM.
The value for H-RRIRPREPRLPRPRPR-OH was 32 µM; that for H-RRIRPRPPPLPRPRPR-OH was 16 µM.
For the compound H-RRIRPRPPRLPFPRPR-OH, the MIC99 turned out to be 16 µM.
The value for H-RRIRPRPPRLARPRPR-OH was 32 µM; that for H-RRIRPRPPRLPRPRRR-OH was 16 µM; that for H-RWIRPRPPRLPRPRPR-OH was 8 µM.
As for H-RRRRPRPPRLPRPRPR-OH, the MIC99 is 8 µM.
Turning to H-RRARPRPPRLPRPRPR-OH, the MIC99 worked out at 16 µM.
On to H-RRIRFRPPRLPRPRPR-OH, for which the MIC99 stood at 8 µM.
The value for H-RRIRPRPSRLPRPRPR-OH was 16 µM; that for H-IRPLPPRRPRRPRRRP-OH was 64 µM.
The value for H-RRIRPFPPRLPRPRPR-OH was 16 µM.
In the case of H-RRIRPRPPRLRRPRPR-OH, the MIC99 was determined as 16 µM.
The value for H-RRIRPRPARLPRPRPR-OH was 16 µM; that for H-RRIRPRPPRLPRPAPR-OH was 32 µM.
H-RRIFPRPPRLPRPRPR-OH: the MIC99 was 16 µM.
As for H-RRFRPRPPRLPRPRPR-OH, the MIC99 was determined as 16 µM.
The result for H-RRSRPRPPRLPRPRPR-OH reads 16 µM; that for H-RRWRPRPPRLPRPRPR-OH, 4 µM.
Regarding H-RRIRPRPPRLFRPRPR-OH, the MIC99 was determined as 32 µM.
The result for H-RRIRPRPPRRPRPRPR-OH reads 32 µM.
The result for H-RRIRPEPPRLPRPRPR-OH reads more than 64 µM; that for H-RRIRPRPERLPRPRPR-OH, 64 µM.
The value for H-RRIRGRPPRLPRPRPR-OH was 8 µM.
Take H-RRIRPRPPRLPPPRPR-OH: the MIC99 worked out at 32 µM.
The value for `CC[C@H](C)[C@H](NC(=O)C1CCCN1C(=O)[C@@H](N)CCCNC(=N)N)C(=O)N[C@@H](CCCNC(=N)N)C(=O)N1CCC[C@H]1C(=O)N[C@@H](CCCNC(=N)N)C(=O)N1CCC[C@H]1C(=O)N1CCC[C@H]1C(=O)N[C@@H](CCCNC(=N)N)C(=O)N[C@@H](CC(C)C)C(=O)N1CCC[C@H]1C(=O)N[C@@H](CCCNC(=N)N)C(=O)N1CCC[C@H]1C(=O)N[C@@H](CCCNC(=N)N)C(=O)N1CCC[C@H]1C(=O)N[C@@H](CCCNC(=N)N)C(=O)O` (stereo partly drawn) (H-R[ξP]IRPRPPRLPRPRPR-OH) was 64 µM (≈ 129 µg/mL).
The value for H-RRIRPRPPRLPRPPPR-OH was 32 µM.
Take H-RRIRPRPGRLPRPRPR-OH: the MIC99 was determined as 16 µM.
The value for H-RRIRPRWPRLPRPRPR-OH was 4 µM.
The value for H-RRIGPRPPRLPRPRPR-OH was 16 µM; that for H-RRIRPRPPRLPRPWPR-OH was 4 µM; that for H-REIRPRPPRLPRPRPR-OH was 64 µM.
The result for H-RRIRPRPPRLPAPRPR-OH reads 32 µM; that for H-RRIRPRPPRLPGPRPR-OH, 32 µM.
For H-RRIRPGPPRLPRPRPR-OH, the MIC99 was determined as 32 µM.
Turning to H-RRISPRPPRLPRPRPR-OH, the MIC99 turned out to be 32 µM.
For `CC(C)C[C@H](NC(=O)[C@H](CCCNC(=N)N)NC(=O)[C@@H]1CCCN1C(=O)[C@@H]1CCCN1C(=O)[C@H](CCCNC(=N)N)NC(=O)[C@@H]1CCCN1C(=O)[C@H](CCCNC(=N)N)NC(=O)C1CCCN1C(=O)[C@H](CCCNC(=N)N)NC(=O)[C@@H](N)CCCNC(=N)N)C(=O)N1CCC[C@H]1C(=O)N[C@@H](CCCNC(=N)N)C(=O)N1CCC[C@H]1C(=O)N[C@@H](CCCNC(=N)N)C(=O)N1CCC[C@H]1C(=O)N[C@@H](CCCNC(=N)N)C(=O)O` (stereo partly drawn) (H-RR[ξP]RPRPPRLPRPRPR-OH), the MIC99 is 16 µM (≈ 33 µg/mL).
Consider H-RRIRPRPPRLGRPRPR-OH, for which the MIC99 amounted to 32 µM.
The result for H-RRIRPRPPRLWRPRPR-OH reads 8 µM; that for H-RRIRPRRPRLPRPRPR-OH, 8 µM.
The result for H-RRIRPRPPRLPRPGPR-OH reads 32 µM.
The value for H-RRIRPRPPREPRPRPR-OH was more than 64 µM; that for H-RRIRPRPPRLPRARPR-OH was 16 µM; that for H-RRIRPRPPRWPRPRPR-OH was 16 µM.
Take H-RRIRPRPPRLERPRPR-OH: the MIC99 was found to be 64 µM.
The result for H-RRIRPRPPELPRPRPR-OH reads more than 64 µM.
On to H-RRIRPPPPRLPRPRPR-OH, for which the MIC99 came out at 32 µM.
The value for H-RRIRPRPPRLPRPRPS-OH was 16 µM; that for H-RRIRPRPPRLPRPRSR-OH was 16 µM; that for H-RRIRPRPPRLPWPRPR-OH was 8 µM.
The result for H-RRIRWRPPRLPRPRPR-OH reads 4 µM; that for H-RRIRPRPPRLPRGRPR-OH, 16 µM; that for H-RRIRPRPPRLPRSRPR-OH, 16 µM.
The value for H-RRIRRRPPRLPRPRPR-OH was 8 µM; that for H-RRIRPRPPRLPRPRAR-OH was 8 µM; that for H-RRIRPRPPRAPRPRPR-OH was 64 µM.
In the case of H-RRIPPRPPRLPRPRPR-OH, the MIC99 was 16 µM.
The value for H-RRGRPRPPRLPRPRPR-OH was 16 µM; that for H-RAIRPRPPRLPRPRPR-OH was 16 µM; that for H-RRIRPRPPRPPRPRPR-OH was 64 µM.
The value for H-RRIRPRPWRLPRPRPR-OH was 4 µM; that for H-RRERPRPPRLPRPRPR-OH was 64 µM; that for H-RRIRPRAPRLPRPRPR-OH was 16 µM.
The result for H-RRIRPRPPRSPRPRPR-OH reads 32 µM.
For the compound H-FRIRPRPPRLPRPRPR-OH, the MIC99 is 4 µM.
The result for H-RRIRPRPPRLPRRRPR-OH reads 8 µM; that for H-RRIRPRPPRFPRPRPR-OH, 32 µM; that for H-RRIRPRPPRLPRPEPR-OH, 64 µM.
The value for H-PRIRPRPPRLPRPRPR-OH was 8 µM.
H-RRIRPWPPRLPRPRPR-OH: the MIC99 worked out at 8 µM.
The result for H-RRIRPRPPALPRPRPR-OH reads 64 µM; that for H-RRIAPRPPRLPRPRPR-OH, 16 µM; that for H-RRIRPRPPRLPSPRPR-OH, 16 µM.
The value for H-RRIRPRPPWLPRPRPR-OH was 4 µM; that for H-RRIRPSPPRLPRPRPR-OH was 32 µM.
The value for H-RRIRPRPFRLPRPRPR-OH was 16 µM; that for H-RRIRERPPRLPRPRPR-OH was 32 µM; that for H-SRIRPRPPRLPRPRPR-OH was 16 µM.
As for H-RSIRPRPPRLPRPRPR-OH, the MIC99 came to 16 µM.
